{"source": "patent US4010184A", "about": "“Thienodiazepines” (Yoshitomi Pharmaceutical Industries, Ltd., priority 1973, dated 1977)", "key": {"[1]": {"tested_on": "mice (tail electrical stimulation, absence of squeak)", "assay": "Analgesic Activity (Electrical Stimulation Method)", "type": "in vivo, mouse", "conditions": "male mice, intraperitoneal, tail stimulated 5 s, 25 volts, 40 msec., 1 cps, determined graphically; for ED50: Mus musculus, ip", "method": "1. Analgesic Activity (Electrical Stimulation Method)\nThe test was performed essentially in accordance with the methods described in \"Journal of the Pharmaceutical Society of Japan,\" vol 73, p. 212 ff. (1953) and \"Folia Pharmacologica Japonica,\" vol. 65, p. 378 ff. (1969).\nTest compound was administered intraperitoneally to groups consisting 10 male mice. The tail of the mouse was electrically stimulated for 5 seconds with interrupted direct current (25 volts, 40 msec., 1 cps.). When no squeak was observed during the electrical stimulation, analgesic effect was evaluated to be positive.\nThe ED50 (50% effective dose) was determined graphically."}, "[2]": {"tested_on": "mice (pentylenetetrazole lethality)", "assay": "Anticonvulsant Activity (pentylenetetrazole-induced death)", "type": "in vivo, mouse", "conditions": "intraperitoneal; for Anticonvulsant Activity %-Inhibition: 15 min before pentylenetetrazole 150 mg/kg s.c., deaths within 3 hours, at dose equal to analgesic ED50: 40 (1, 2), 30 (3), 28 (4), 200 (5), 170 (6), 200 (7) mg/kg; for A/B (A: ED50 value for analgesic activity; B: ED50 value for anticonvulsant activity): ratio of ED50 values", "method": "2. Anticonvulsant Activity\nPentylenetetrazole (150 mg/kg) was administered subcutaneously to groups consisting 6 mice 15 minutes after the intraperitoneal administration of the test compound. The number of dead mice were counted within 3 hours after the administration of pentylenetetrazole. On one hand, the %-inhibition at the dose equal to the ED50 dose for analgesic activity was determined, and on the other, the ED50, the dose required to suppress the lethal rate to 50%, was determined graphically."}}}
{"compound": "5-(3,4-dichlorophenyl)-7-ethyl-1-dimethylcarbamoyl-2,3-dihydro-1H-thieno[2,3-e][1,4]diazepine hydrochloride [Example 6]", "values": [{"measurement": "Analgesic Activity ED50", "setting": "[1]", "value": 170, "unit": "mg/kg"}]}
{"compound": "5-o-chlorophenyl-7-ethyl-1-(4-methyl-1-piperazinylcarbonyl)-2,3-dihydro-1H-thieno[2,3-e][1,4]diazepine dihydrochloride 1/2 -hydrate [Example 4]", "values": [{"measurement": "Analgesic Activity ED50", "setting": "[1]", "value": 28, "unit": "mg/kg"}]}
{"compound": "5-o-chlorophenyl-7-ethyl-1-piperidinocarbonyl-2,3-dihydro-1H-thieno[2,3-e][1,4]diazepine hydrochloride [Example 3]", "values": [{"measurement": "Anticonvulsant Activity %-Inhibition", "setting": "[2]", "value": 0, "unit": "%"}, {"measurement": "A/B (A: ED50 value for analgesic activity; B: ED50 value for anticonvulsant activity)", "setting": "[2]", "value": "< 0.4"}]}
{"compound": "7-ethyl-1-dimethylcarbamoyl-5-phenyl-2,3-dihydro-1H-thieno[2,3-e][1,4]diazepine hydrochloric [Example 5]", "values": [{"measurement": "Analgesic Activity ED50", "setting": "[1]", "value": "> 200", "unit": "mg/kg"}]}
{"compound": "Cc1c(N(C)C)c(=O)n(-c2ccccc2)n1C", "note": "[Aminopyrine, reference compound]", "values": [{"measurement": "ED50", "setting": "[1]", "value": 100, "unit": "mg/kg"}]}
{"compound": "CCc1cc2c(s1)N(C(=O)N(C)C)CCN=C2c1ccccc1Cl.Cl", "note": "[Test Compound 1, 5-o-chlorophenyl-7-ethyl-1-dimethylcarbamoyl-2,3-dihydro-1H-thieno[2,3-e][1,4]diazepine hydrochloride]", "values": [{"measurement": "Anticonvulsant Activity %-Inhibition", "setting": "[2]", "value": 0, "unit": "%"}, {"measurement": "A/B (A: ED50 value for analgesic activity; B: ED50 value for anticonvulsant activity)", "setting": "[2]", "value": "< 0.4"}, {"measurement": "ED50", "setting": "[1]", "value": 40, "unit": "mg/kg"}]}
{"compound": "CCc1cc2c(s1)N(C(=O)N(C)C)CCN=C2c1ccc(Cl)cc1.Cl", "note": "[Test Compound 2, 5-p-chlorophenyl-7-ethyl-1-dimethylcarbamoyl-2,3-dihydro-1H-thieno[2,3-e][1,4]diazepine hydrochloride]", "values": [{"measurement": "Anticonvulsant Activity %-Inhibition", "setting": "[2]", "value": 0, "unit": "%"}, {"measurement": "A/B (A: ED50 value for analgesic activity; B: ED50 value for anticonvulsant activity)", "setting": "[2]", "value": "< 0.4"}, {"measurement": "ED50", "setting": "[1]", "value": 40, "unit": "mg/kg"}]}
{"compound": "CCc1cc2c(s1)N(C(=O)NC)CCN=C2c1ccccc1Cl", "note": "[Test Compound 7, 5-o-chlorophenyl-7-ethyl-1-methylcarbamoyl-2,3-dihydro-1H-thieno[2,3-e][1,4]diazepine, reference compound]", "values": [{"measurement": "Anticonvulsant Activity %-Inhibition", "setting": "[2]", "value": 100, "unit": "%"}, {"measurement": "A/B (A: ED50 value for analgesic activity; B: ED50 value for anticonvulsant activity)", "setting": "[2]", "value": "2 - 4"}, {"measurement": "ED50", "setting": "[1]", "value": 200, "unit": "mg/kg"}]}
